Assay results as given in PubChem BioAssay (NCI).
Where “and” joins values, the source holds several entries; their conditions need not be identical. Equal entries are not always repeated.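 Five concentrations, 48 hours, 96-well plates. GI50: concentration for 50% inhibition of growth. At the TGI there is no net growth.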

Tests used:
Assay in all cases: NCI-60 cell line screen, 48 h
ACHN renal = system: ACHN renal
HCC-2998 colon = system: HCC-2998 colon
KM12 colon = system: KM12 colon
MCF7 breast = system: MCF7 breast
MDA-MB-231 breast = system: MDA-MB-231 breast
OVCAR-3 ovarian = system: OVCAR-3 ovarian
OVCAR-4 ovarian = system: OVCAR-4 ovarian
OVCAR-5 ovarian = system: OVCAR-5 ovarian
RXF 393 renal = system: RXF 393 renal
SN12C renal = system: SN12C renal

SMILES	GI50 (ACHN renal)	TGI (ACHN renal)	GI50 (HCC-2998 colon)	TGI (HCC-2998 colon)	GI50 (KM12 colon)	GI50 (MCF7 breast)	TGI (MCF7 breast)	GI50 (MDA-MB-231 breast)	TGI (MDA-MB-231 breast)	GI50 (OVCAR-3 ovarian)	TGI (OVCAR-3 ovarian)	GI50 (OVCAR-4 ovarian)	TGI (OVCAR-4 ovarian)	GI50 (OVCAR-5 ovarian)	TGI (OVCAR-5 ovarian)	GI50 (RXF 393 renal)	TGI (RXF 393 renal)	GI50 (SN12C renal)	TGI (SN12C renal)	TGI (KM12 colon)
COc1cc2c(cc1O)c(=O)n(CCN(C)C)c1c3cc4c(cc3ncc21)OCO4	< 0.01 µM	0.0464 µM	0.109 µM	0.398 µM	0.177 µM	< 0.01 µM	1.62 µM	0.0616 µM	5.58 µM	0.0388 µM	0.423 µM	0.0511 µM	1.74 µM	0.325 µM	2.82 µM	0.0318 µM	0.116 µM	< 0.01 µM	10.5 µM	
CC(C)=Cc1cccc2[nH]c(O)c(N=Nc3ccc(S(N)(=O)=O)cc3)c12	2.09 µM	> 25 µM	> 25 µM	> 25 µM	0.1 µM	1.04 µM	> 25 µM	7.17 µM	> 25 µM	11.5 µM	> 25 µM	1.26 µM	> 25 µM	> 25 µM	> 25 µM	0.987 µM	> 19.4 µM	> 25 µM	> 25 µM	> 18.6 µM
COc1ccc(-c2cc(-c3ccc(OC)cc3)nc(NCCCNc3ccnc4cc(Cl)ccc34)n2)cc1	1.82 µM	3.22 µM	1.73 µM	3.2 µM	1.78 µM	1.65 µM	3.5 µM	1.95 µM	3.59 µM	1.7 µM	3.14 µM	1.65 µM	3.35 µM	1.67 µM	3.14 µM	1.32 µM	2.74 µM	1.71 µM	3.34 µM	3.28 µM
FC(F)(F)c1nc(SCc2ccc(Cl)cc2)n[nH]1		> 100 µM		> 100 µM			> 100 µM		> 100 µM		> 100 µM		> 100 µM		> 100 µM		> 100 µM		> 100 µM	> 100 µM
CC[C@]12C=CCN3CC[C@@]4(c5ccc(OC)cc5N(C)[C@H]4[C@@](O)(C(=O)OC)[C@@H]1OC(=O)CCC(=O)O[C@H]1CC[C@H]4[C@@H]5CC[C@H]6CC(=O)CC[C@]6(C)[C@H]5CC[C@]14C)[C@@H]32	3.01 µM	> 100 µM	3.34 µM	> 100 µM	3.16 µM	2.42 µM	> 100 µM	3.03 µM	11.3 µM	3.05 µM	> 100 µM	2.58 µM	> 100 µM	2.69 µM	> 100 µM	2.31 µM	6.73 µM	2.88 µM	36.2 µM	> 100 µM
CCCCC(OC(=O)c1ccc(N)cc1)C(=O)Nc1nc(CC(=O)OCC)cs1 (configuration not stated)	38.8 µM	> 100 µM	67.5 µM	> 100 µM	41.4 µM	34.8 µM	> 100 µM	28.1 µM	> 100 µM	23.5 µM	82 µM	29.8 µM	> 100 µM	> 100 µM	> 100 µM	38.1 µM	> 100 µM	41.6 µM	> 100 µM	> 100 µM
O=c1cc(-c2ccccc2)oc2c1ccc1ccccc12	17.6 µM	90 µM	56.7 µM	> 100 µM	24.9 µM	13.9 µM	> 100 µM	12.5 µM	67.9 µM	30.9 µM	> 100 µM	21.2 µM	> 100 µM	50.7 µM	> 100 µM	24.1 µM	64.4 µM	19.6 µM	> 100 µM	89.2 µM
Fc1ccc(-c2ncn(CCCN3CCOCC3)c2-c2ccncc2)cc1	> 25 µM	> 25 µM	> 25 µM	> 25 µM	> 25 µM	> 25 µM	> 25 µM	> 25 µM	> 25 µM	> 25 µM	> 25 µM	> 25 µM	> 25 µM	> 25 µM	> 25 µM	> 25 µM	> 25 µM	> 25 µM	> 25 µM	> 25 µM
C#Cc1cccc(NC(=O)c2cccc(NC(=O)CCl)c2)c1	15.2 µM	42.9 µM	29.8 µM	> 82.5 µM	17.4 µM	12.8 µM	> 82.5 µM	16 µM	37.2 µM	14.2 µM	29.4 µM	15.8 µM	33.9 µM	15.8 µM	40.8 µM	12.7 µM	29.8 µM	14.9 µM	49.1 µM	60.6 µM
O=C(Nc1n[nH]c2nc(-c3ccc(O)cc3)c(Br)cc12)C1CC1	2.62 µM	> 21.8 µM	4.76 µM	> 20.3 µM	1.54 µM	1.05 µM	10.2 µM	5.52 µM	16.8 µM	1.39 µM	9.14 µM	5.17 µM	14.4 µM	7.46 µM	21.7 µM	1.18 µM	5.02 µM	3.41 µM	20.1 µM	7.76 µM
O=C(Nc1cn[nH]c1-c1nc2ccc(CN3CCOCC3)cc2[nH]1)NC1CC1	2.47 µM and 5.7 µM	17.7 µM and > 10 µM	1.76 µM and > 10 µM	3.81 µM and > 10 µM	0.634 µM and 1.72 µM	0.522 µM and 2.07 µM	7.37 µM and > 10 µM	1.18 µM and 1.48 µM	10.3 µM and > 10 µM	0.306 µM and 1.32 µM	6.3 µM and 6.7 µM	1.04 µM and > 10 µM	12.4 µM and > 10 µM	2.78 µM and 6.68 µM	9.49 µM and > 10 µM	0.241 µM and 0.287 µM	1.79 µM and 2.17 µM	0.468 µM and 2.54 µM	12.1 µM and > 10 µM	4.06 µM and > 10 µM
O=C1/C(=C/c2ccc(F)cc2)CN(C(=O)C(Cl)Cl)C/C1=C\c1ccc(F)cc1	0.24 µM	0.603 µM	0.178 µM	0.351 µM	0.107 µM	0.112 µM	1.09 µM	0.323 µM	1.09 µM	0.262 µM	0.778 µM	0.321 µM	1.15 µM	0.323 µM	1.1 µM	0.445 µM	0.968 µM	0.222 µM	0.556 µM	0.336 µM
CC1OC(CC(=O)O)Cc2c1c(O)c1c(O)cc(-c3cc(=O)c4c(=O)c5c(c(=O)c=4c3=O)CC(CC(=O)O)OC5C)c(O)c1c2O (configuration not stated)	43.3 µM	> 81 µM	18.9 µM	> 73.9 µM and 55.2 µM	32.5 µM	27.7 µM		29.4 µM	64.9 µM	37 µM	> 58.6 µM	35.1 µM	39.7 µM	53.1 µM	> 91.1 µM	12 µM	20.3 µM and 27 µM	29.2 µM	32 µM	> 100 µM
CCOC(=O)Nc1ccc2c(c1)C(=O)N(CC)c1ccccc1O2	0.232 µM	> 100 µM	0.309 µM	> 100 µM	0.0661 µM	0.139 µM	> 100 µM	0.4 µM	> 100 µM	0.0788 µM	0.612 µM	0.237 µM	> 100 µM		> 100 µM	0.0277 µM	54.9 µM	0.449 µM	> 100 µM	> 100 µM
O=c1oc2ccc(Cl)cc2c(=O)n1-c1ccc(F)cc1F	2.14 µM	6.08 µM	2.89 µM	8.72 µM	2.72 µM	2.42 µM	> 100 µM	2.06 µM	8.2 µM	2.24 µM	18.2 µM	1.11 µM	> 100 µM	3.43 µM	97.5 µM	1.76 µM	5.72 µM	1.67 µM	8.78 µM	10.2 µM
COc1ccc(CNCCCN2C(=O)c3ccc4c5c(ccc(c35)C2=O)C(=O)N(CCCNCc2ccc(OC)c(OC)c2OC)C4=O)c(OC)c1OC	0.107 µM	0.257 µM	0.0957 µM	0.187 µM	0.0792 µM	0.0811 µM	0.219 µM	0.125 µM	0.398 µM	0.0888 µM	0.23 µM	0.0599 µM	0.127 µM	0.108 µM	0.25 µM	0.0823 µM	0.176 µM	0.0821 µM	0.157 µM	0.168 µM
C/C(CC(C)(C)N1CC1)=N\NC(=O)Nc1cccc2ccccc12	2.99 µM	11.8 µM	4.81 µM	17 µM	4.13 µM	2.42 µM	11.2 µM	3.25 µM	9.42 µM	2.32 µM	5.92 µM	4.23 µM	15.9 µM	6.04 µM	23 µM	2.08 µM	5.46 µM	5.76 µM	77.9 µM	15.7 µM
O=[N+]([O-])c1ccc(N=Nc2c(Cl)cc(O)cc2Cl)cc1	1.01 µM	11.6 µM	3.15 µM	10.8 µM	1.41 µM	1.17 µM	6.43 µM	0.7 µM	4.86 µM	0.462 µM	2.47 µM	1.39 µM	12 µM	4.22 µM	16.5 µM	2.51 µM	13.5 µM	0.875 µM	10.3 µM	3.36 µM
